# Assay results: patent publication US8987252B2, “Aryloxy- and heteroaryloxy-substituted tetrahydrobenzazepines and use thereof to block reuptake of norepinephrine, dopamine, and serotonin” (Albany Molecular Research, Inc., priority 2007, dated 2015)
# Structures can show the parent of a compound that is named as a salt.
row,SMILES,melting point [°C]
1,"CN1CCC(Oc2ccc3cccnc3c2)c2ccc(-c3cccnn3)cc2C1 (centres unmarked) (as salt: tartrate) [Example 33, 2-methyl-8-(pyridazin-3-yl)-5-(quinolin-7-yloxy)-2,3,4,5-tetrahydro-1H-benzo[c]azepine]",120 to 122
2,"CN1CCC(Oc2cccc(C#N)c2)c2ccc(-c3cccnn3)cc2C1 (centres unmarked) (as salt: tartrate) [Example 52, 5-(3-cyanophenoxy)-2-methyl-8-(pyridazin-3-yl)-2,3,4,5-tetrahydro-1H-benzo[c]azepine]",113 to 115
3,"CN1CCC(Oc2cc(F)cc(F)c2)c2ccc(-c3cccnn3)cc2C1 (centres unmarked) (as salt: tartrate) [Example 5, 5-(3,5-difluorophenoxy)-2-methyl-8-(pyridazin-3-yl)-2,3,4,5-tetrahydro-1H-benzo[c]azepine]",94 to 96
4,"CN1CCC(Oc2ccc(Cl)c(Cl)c2)c2ccc(-c3cccnn3)cc2C1 (centres unmarked) (as salt: tartrate) [Example 7, 5-(3,4-Dichlorophenoxy)-2-methyl-8-(pyridazin-3-yl)-2,3,4,5-tetrahydro-1H-benzo[c]azepine]",102 to 104
5,"CN1CCC(Oc2ccc(Cl)cc2)c2ccc(-c3cccnn3)cc2C1 (centres unmarked) (as salt: tartrate) [Example 2, 5-(4-chlorophenoxy)-2-methyl-8-(pyridazin-3-yl)-2,3,4,5-tetrahydro-1H-benzo[c]azepine]",106 to 108
6,"Cc1ccc(OC2CCN(C)Cc3cc(-c4cccnn4)ccc32)cc1 (centres unmarked) (as salt: tartrate) [Example 3, 2-methyl-8-(pyridazin-3-yl)-5-(p-tolyloxy)-2,3,4,5-tetrahydro-1H-benzo[c]azepine]",104 to 106
7,"CN1CCC(Oc2cccc3ccccc23)c2ccc(-c3cccnn3)cc2C1 (centres unmarked) (as salt: tartrate) [Example 15, 2-Methyl-5-(naphthalen-1-yloxy)-8-(pyridazin-3-yl)-2,3,4,5-tetrahydro-1H-benzo[c]azepine]",100 to 102
8,"CN1CCC(Oc2cccc(F)c2)c2ccc(-c3cccnn3)cc2C1 (centres unmarked) (as salt: tartrate) [Example 13, 5-(3-fluorophenoxy)-2-methyl-8-(pyridazin-3-yl)-2,3,4,5-tetrahydro-1H-benzo[c]azepine]",96 to 98
9,"CN1CCC(Oc2cc(F)ccc2F)c2ccc(-c3cccnn3)cc2C1 (centres unmarked) (as salt: tartrate) [Example 54, 5-(2,5-difluorophenoxy)-2-methyl-8-(pyridazin-3-yl)-2,3,4,5-tetrahydro-1H-benzo[c]azepine]",102 to 104
10,"CN1CCC(Oc2ccc(OC(F)(F)F)cc2)c2ccc(-c3cccnn3)cc2C1 (centres unmarked) (as salt: tartrate) [Example 4, 2-methyl-8-(pyridazin-3-yl)-5-(4-(trifluoromethoxy)phenoxy)-2,3,4,5-tetrahydro-1H-benzo[c]azepine]",104 to 106
11,"CN1CCC(Oc2ccccc2)c2ccc(-c3ncccn3)cc2C1 (centres unmarked) (as salt: tartrate) [Example 49, 2-Methyl-5-phenoxy-8-(pyrimidin-2-yl)-2,3,4,5-tetrahydro-1H-benzo[c]azepine]",108 to 110
12,"CN1CCC(Oc2cccnc2)c2ccc(-c3cccnn3)cc2C1 (centres unmarked) (as salt: tartrate) [Example 11, 2-methyl-8-(pyridazin-3-yl)-5-(pyridin-3-yloxy)-2,3,4,5-tetrahydro-1H-benzo[c]azepine]",120 to 123
13,"CN1CCC(Oc2ccc(C#N)cc2)c2ccc(-c3cccnn3)cc2C1 (centres unmarked) (as salt: tartrate) [Example 6, 4-(2-Methyl-8-(pyridazin-3-yl)-2,3,4,5-tetrahydro-1H-benzo[c]azepin-5-yloxy)benzonitrile]",94 to 96
14,"CN1CCC(Oc2cccc(F)c2F)c2ccc(-c3cccnn3)cc2C1 (centres unmarked) (as salt: tartrate) [Example 51, 5-(2,3-difluorophenoxy)-2-methyl-8-(pyridazin-3-yl)-2,3,4,5-tetrahydro-1H-benzo[c]azepine]",112 to 114
15,"CN1CCC(Oc2ccccc2)c2ccc(-c3cccnn3)cc2C1 (centres unmarked) (as salt: tartrate) [Example 10, 2-methyl-5-phenoxy-8-(pyridazin-3-yl)-2,3,4,5-tetrahydro-1H-benzo[c]azepine]",98 to 100
16,"CN1CCC(Oc2ccccc2Cl)c2ccc(-c3cccnn3)cc2C1 (centres unmarked) (as salt: tartrate) [Example 35, 5-(2-chlorophenoxy)-2-methyl-8-(pyridazin-3-yl)-2,3,4,5-tetrahydro-1H-benzo[c]azepine]",104 to 106
17,"CN1CCC(Oc2ccccc2Cl)c2ccc(-c3cccnn3)cc2C1 (centres unmarked) (as salt: tartrate) [Example 34, 5-(2-chlorophenoxy)-2-methyl-8-(pyridazin-3-yl)-2,3,4,5-tetrahydro-1H-benzo[c]azepine]",100 to 102
18,"CN1CCC(Oc2ccc(F)c(F)c2)c2ccc(-c3cccnn3)cc2C1 (centres unmarked) (as salt: tartrate) [Example 8, 5-(3,4-Difluorophenoxy)-2-methyl-8-(pyridazin-3-yl)-2,3,4,5-tetrahydro-1H-benzo[c]azepine]",100 to 102
19,"Cc1ccc(-c2ccc3c(c2)CNCCC3Oc2ccccc2)nn1 (centres unmarked) (as salt: tartrate) [Example 32, 8-(6-methylpyridazin-3-yl)-5-phenoxy-2,3,4,5-tetrahydro-1H-benzo[c]azepine]",115 to 118
20,"CN1CCC(Oc2ccc3ccccc3c2)c2ccc(-c3cccnn3)cc2C1 (centres unmarked) (as salt: tartrate) [Example 1, 2-methyl-5-(naphthalen-2-yloxy)-8-(pyridazin-3-yl)-2,3,4,5-tetrahydro-1H-benzo[c]azepine]",122 to 124
21,"CN1CCC(Oc2ccc3ccccc3c2)c2ccc(-c3cccnn3)cc2C1 (centres unmarked) (as salt: tartrate) [Example 18, 5-(naphthalen-2-yloxy)-2-methyl-8-(pyridazin-3-yl)-2,3,4,5-tetrahydro-1H-benzo[c]azepine]",120 to 122
22,"CN1CCC(Oc2ccc(F)cc2F)c2ccc(-c3cccnn3)cc2C1 (centres unmarked) (as salt: tartrate) [Example 9, 5-(2,4-Difluorophenoxy)-2-methyl-8-(pyridazin-3-yl)-2,3,4,5-tetrahydro-1H-benzo[c]azepine]",98 to 100
23,"CN1CCC(Oc2ccccc2F)c2ccc(-c3cccnn3)cc2C1 (centres unmarked) (as salt: tartrate) [Example 12, 5-(2-fluorophenoxy)-2-methyl-8-(pyridazin-3-yl)-2,3,4,5-tetrahydro-1H-benzo[c]azepine]",96 to 98
24,"CN1CCC(Oc2ccc(C#N)cc2)c2ccc(-c3cccnn3)cc2C1 (centres unmarked) (as salt: tartrate) [Example 53, 5-(4-cyanophenoxy)-2-methyl-8-(pyridazin-3-yl)-2,3,4,5-tetrahydro-1H-benzo[c]azepine]",110 to 112
25,"CN1CCC(Oc2c(F)cccc2F)c2ccc(-c3cccnn3)cc2C1 (centres unmarked) (as salt: tartrate) [Example 55, 5-(2,6-difluorophenoxy)-2-methyl-8-(pyridazin-3-yl)-2,3,4,5-tetrahydro-1H-benzo[c]azepine]",98 to 100
26,"CN1CCC(Oc2cc(F)cc(F)c2)c2ccc(-c3cccnn3)cc2C1 (centres unmarked) (as salt: tartrate) [Example 14, 5-(3,5-difluorophenoxy)-2-methyl-8-(pyridazin-3-yl)-2,3,4,5-tetrahydro-1H-benzo[c]azepine]",120 to 122
